According to patent US20210254272A1, “TEXTILES HAVING ANTIMICROBIAL PROPERTIES” (Livinguard AG, priority 2015, published 2021):

Experiment: Leaching test: 100 g fabric soaked in 10 liters stagnant distilled water, 3 days (72 hours)
Type: physicochemical
Settings: for Leaching of active ingredients / Leaching Test-Leaching of active ingredients: pad process; for Leaching of active ingredients: cured 180° C. 2 min; for Leaching Test-Leaching of active ingredients: 2 min
Experimental: (§1) The test procedure for leaching was as follows: 100 g (grams) of fabric as well as control fabrics were soaked in 10 liters of stagnant distilled water in a closed wide mouth jar. After 3 days (72 hours), the water samples were tested for leached substances as per standard analytical methods.
as §1, with “methods. A weight of 100 g fabric was chosen because in the preferred embodiment of the water filter as described further below, each filter comprises a strip of fabric with 210 g/m^2, 3 meters long and 0.16 meters wide, which corresponds to 100 g of fabric.” for “methods.”

With Silver as the substance, how does the “Leaching of active ingredients (in ppm)” value (exhaust 80° C., 60 min, dosage 1% o.w.f (test up to 5% o.w.f)) read?
Its value is 3.5 ppm.

What about the “Leaching of active ingredients (in ppm)” value (exhaust 80° C., 60 min, dosage 2% o.w.f) of the same substance?
The value was 19 ppm.

And the “Leaching of active ingredients (in ppm)” value (exhaust 80° C., 60 min, dosage 3% o.w.f)?
Its value is 36 ppm.

And the “Leaching of active ingredients (in ppm)” value (exhaust 80° C., 60 min, dosage 4% o.w.f)?
The value was 41 ppm.

And the “Leaching of active ingredients (in ppm)” value (exhaust 80° C., 60 min, dosage 5% o.w.f)?
The value was 69 ppm.

And the “Leaching of active ingredients (in ppm)” value (exhaust 80 ° C., solution dosage 1% o.w.f, process time 10 min)?
The value was 50 ppm.

What about the “Leaching of active ingredients (in ppm)” value (exhaust 80 ° C., solution dosage 1% o.w.f, process time 20 min) of the same substance?
The value was 37 ppm.

What about the “Leaching of active ingredients (in ppm)” value (exhaust 80 ° C., solution dosage 1% o.w.f, process time 30 min) of the same substance?
Its value is 28 ppm.

What about the “Leaching of active ingredients (in ppm)” value (exhaust 80 ° C., solution dosage 1% o.w.f, process time 40 min) of the same substance?
Its value is 22 ppm.

What about the “Leaching of active ingredients (in ppm)” value (exhaust 80 ° C., solution dosage 1% o.w.f, process time 50 min) of the same substance?
Its value is 19 ppm.

What about the “Leaching of active ingredients (in ppm)” value (exhaust 80 ° C., solution dosage 1% o.w.f, process time 55 min) of the same substance?
Its value is 8 ppm.

And the “Leaching of active ingredients (in ppm)” value (exhaust 80 ° C., solution dosage 1% o.w.f, process time 60 min)?
Its value is 4 ppm.

And the “Leaching of active ingredients (in ppm)” value (exhaust 80 ° C., solution dosage 1% o.w.f, process time 70 min)?
Its value is 4 ppm.

And the “Leaching of active ingredients (in ppm)” value (exhaust 80 ° C., solution dosage 1% o.w.f, process time 80 min)?
Its value is 3 ppm.

And the “Leaching of active ingredients (in ppm)” value (exhaust 80 ° C., solution dosage 1% o.w.f, process time 90 min)?
The value was 8 ppm.

What about the “limit on the quantity of the agent that can be adhered to the textile in a non-leaching or substantially non-leaching manner” value (from Experimental examples I.1 and I.4) of the same substance?
Its value is “about 0.01 % o.w.f”.

And the “Leaching of active ingredients” value (mixture 1 gm/lit each)?
The value was 12 ppm.

What about the “Leaching of active ingredients” value (mixture 1 gm/lit each, after Washing) of the same substance?
Its value is 0.4 ppm.

What about the “Leaching of active ingredients” value (mixture 5 gm/lit each) of the same substance?
The value was 28 ppm.

And the “Leaching of active ingredients” value (mixture 5 gm/lit each, after Washing)?
The value was 0.6 ppm.

What about the “Leaching of active ingredients” value (mixture 10 gm/lit each) of the same substance?
Its value is 38 ppm.

What about the “Leaching of active ingredients” value (mixture 10 gm/lit each, after Washing) of the same substance?
Its value is 1.0 ppm.

And the “Leaching Test-Leaching of active ingredients” value (from here on “Leaching Test-Leaching”) (single agent 5 gm/lit, curing 120° C.)?
The value was 9 ppm.

And the “Leaching Test-Leaching” value (single agent 5 gm/lit, curing 140° C.)?
Its value is 5 ppm.

What about the “Leaching Test-Leaching” value (single agent 5 gm/lit, curing 150° C.) of the same substance?
The value was 3 ppm.

And the “Leaching Test-Leaching” value (single agent 5 gm/lit, curing 160° C.)?
The value was 2 ppm.

And the “Leaching Test-Leaching” value (single agent 5 gm/lit, curing 180° C.)?
Its value is 1 ppm.

What about the “Leaching Test-Leaching” value (single agent 10 gm/lit, curing 120° C.) of the same substance?
Its value is 16 ppm.

And the “Leaching Test-Leaching” value (single agent 10 gm/lit, curing 140° C.)?
The value was 15 ppm.

What about the “Leaching Test-Leaching” value (single agent 10 gm/lit, curing 150° C.) of the same substance?
The value was 12 ppm.

And the “Leaching Test-Leaching” value (single agent 10 gm/lit, curing 160° C.)?
Its value is 9 ppm.

And the “Leaching Test-Leaching” value (single agent 10 gm/lit, curing 180° C.)?
Its value is 2 ppm.

What about the “Leaching of active ingredient (in ppm)” value (solution dosage 0.10% o.w.f, exhaust temperature 40° C., process time 60 min) of the same substance?
The value was 0 ppm.

And the “Leaching of active ingredient (in ppm)” value (solution dosage 0.10% o.w.f, exhaust temperature 60° C., process time 60 min)?
The value was 0 ppm.

And the “Leaching of active ingredient (in ppm)” value (solution dosage 0.10% o.w.f, exhaust temperature 65° C., process time 60 min)?
The value was 0 ppm.

And the “Leaching of active ingredient (in ppm)” value (solution dosage 0.10% o.w.f, exhaust temperature 70° C., process time 60 min)?
The value was 0 ppm.

What about the “Leaching of active ingredient (in ppm)” value (solution dosage 0.10% o.w.f, exhaust temperature 75° C., process time 60 min) of the same substance?
The value was 0 ppm.

What about the “Leaching of active ingredient (in ppm)” value (solution dosage 0.10% o.w.f, exhaust temperature 80° C., process time 60 min) of the same substance?
Its value is 0 ppm.

What about the “Leaching of active ingredient (in ppm)” value (solution dosage 0.10% o.w.f, exhaust temperature 85° C., process time 60 min) of the same substance?
Its value is 2 ppm.

What about the “Leaching of active ingredient (in ppm)” value (solution dosage 0.10% o.w.f, exhaust temperature 90° C., process time 60 min) of the same substance?
The value was 2 ppm.

And the “Leaching of active ingredient (in ppm)” value (solution dosage 0.10% o.w.f, exhaust temperature 95° C., process time 60 min)?
The value was 2 ppm.

And the “Leaching of active ingredient (in ppm)” value (solution dosage 0.20% o.w.f, exhaust temperature 40° C., process time 60 min)?
Its value is 0 ppm.

And the “Leaching of active ingredient (in ppm)” value (solution dosage 0.20% o.w.f, exhaust temperature 60° C., process time 60 min)?
Its value is 0 ppm.

What about the “Leaching of active ingredient (in ppm)” value (solution dosage 0.20% o.w.f, exhaust temperature 65° C., process time 60 min) of the same substance?
Its value is 0 ppm.

What about the “Leaching of active ingredient (in ppm)” value (solution dosage 0.20% o.w.f, exhaust temperature 70° C., process time 60 min) of the same substance?
The value was 0 ppm.

And the “Leaching of active ingredient (in ppm)” value (solution dosage 0.20% o.w.f, exhaust temperature 75° C., process time 60 min)?
Its value is 0 ppm.

What about the “Leaching of active ingredient (in ppm)” value (solution dosage 0.20% o.w.f, exhaust temperature 80° C., process time 60 min) of the same substance?
Its value is 0 ppm.

What about the “Leaching of active ingredient (in ppm)” value (solution dosage 0.20% o.w.f, exhaust temperature 85° C., process time 60 min) of the same substance?
The value was 4 ppm.

What about the “Leaching of active ingredient (in ppm)” value (solution dosage 0.20% o.w.f, exhaust temperature 90° C., process time 60 min) of the same substance?
The value was 4 ppm.

And the “Leaching of active ingredient (in ppm)” value (solution dosage 0.20% o.w.f, exhaust temperature 95° C., process time 60 min)?
The value was 4 ppm.

What about the “Leaching of active ingredient (in ppm)” value (solution dosage 0.50% o.w.f, exhaust temperature 40° C., process time 60 min) of the same substance?
The value was 0 ppm.

And the “Leaching of active ingredient (in ppm)” value (solution dosage 0.50% o.w.f, exhaust temperature 60° C., process time 60 min)?
The value was 3 ppm.

What about the “Leaching of active ingredient (in ppm)” value (solution dosage 0.50% o.w.f, exhaust temperature 65° C., process time 60 min) of the same substance?
The value was 2 ppm.

What about the “Leaching of active ingredient (in ppm)” value (solution dosage 0.50% o.w.f, exhaust temperature 70° C., process time 60 min) of the same substance?
Its value is 1 ppm.

What about the “Leaching of active ingredient (in ppm)” value (solution dosage 0.50% o.w.f, exhaust temperature 75° C., process time 60 min) of the same substance?
Its value is 1 ppm.

And the “Leaching of active ingredient (in ppm)” value (solution dosage 0.50% o.w.f, exhaust temperature 80° C., process time 60 min)?
Its value is 1 ppm.

What about the “Leaching of active ingredient (in ppm)” value (solution dosage 0.50% o.w.f, exhaust temperature 85° C., process time 60 min) of the same substance?
Its value is 5 ppm.

And the “Leaching of active ingredient (in ppm)” value (solution dosage 0.50% o.w.f, exhaust temperature 90° C., process time 60 min)?
The value was 7 ppm.

What about the “Leaching of active ingredient (in ppm)” value (solution dosage 0.50% o.w.f, exhaust temperature 95° C., process time 60 min) of the same substance?
Its value is 8 ppm.

And the “Leaching of active ingredient (in ppm)” value (solution dosage 0.80% o.w.f, exhaust temperature 40° C., process time 60 min)?
Its value is 0 ppm.

And the “Leaching of active ingredient (in ppm)” value (solution dosage 0.80% o.w.f, exhaust temperature 60° C., process time 60 min)?
The value was 4 ppm.

And the “Leaching of active ingredient (in ppm)” value (solution dosage 0.80% o.w.f, exhaust temperature 65° C., process time 60 min)?
The value was 3 ppm.

And the “Leaching of active ingredient (in ppm)” value (solution dosage 0.80% o.w.f, exhaust temperature 70° C., process time 60 min)?
Its value is 2 ppm.

What about the “Leaching of active ingredient (in ppm)” value (solution dosage 0.80% o.w.f, exhaust temperature 75° C., process time 60 min) of the same substance?
Its value is 3 ppm.

What about the “Leaching of active ingredient (in ppm)” value (solution dosage 0.80% o.w.f, exhaust temperature 80° C., process time 60 min) of the same substance?
Its value is 1 ppm.

What about the “Leaching of active ingredient (in ppm)” value (solution dosage 0.80% o.w.f, exhaust temperature 85° C., process time 60 min) of the same substance?
Its value is 7 ppm.

What about the “Leaching of active ingredient (in ppm)” value (solution dosage 0.80% o.w.f, exhaust temperature 90° C., process time 60 min) of the same substance?
The value was 7 ppm.

What about the “Leaching of active ingredient (in ppm)” value (solution dosage 0.80% o.w.f, exhaust temperature 95° C., process time 60 min) of the same substance?
The value was 8 ppm.

And the “Leaching of active ingredient (in ppm)” value (solution dosage 1.00% o.w.f, exhaust temperature 40° C., process time 60 min)?
The value was 0 ppm.

And the “Leaching of active ingredient (in ppm)” value (solution dosage 1.00% o.w.f, exhaust temperature 60° C., process time 60 min)?
Its value is 7 ppm.

What about the “Leaching of active ingredient (in ppm)” value (solution dosage 1.00% o.w.f, exhaust temperature 65° C., process time 60 min) of the same substance?
The value was 7 ppm.

What about the “Leaching of active ingredient (in ppm)” value (solution dosage 1.00% o.w.f, exhaust temperature 70° C., process time 60 min) of the same substance?
The value was 3 ppm.

What about the “Leaching of active ingredient (in ppm)” value (solution dosage 1.00% o.w.f, exhaust temperature 75° C., process time 60 min) of the same substance?
The value was 4 ppm.

What about the “Leaching of active ingredient (in ppm)” value (solution dosage 1.00% o.w.f, exhaust temperature 80° C., process time 60 min) of the same substance?
Its value is 1 ppm.

And the “Leaching of active ingredient (in ppm)” value (solution dosage 1.00% o.w.f, exhaust temperature 85° C., process time 60 min)?
Its value is 8 ppm.

And the “Leaching of active ingredient (in ppm)” value (solution dosage 1.00% o.w.f, exhaust temperature 90° C., process time 60 min)?
The value was 9 ppm.

And the “Leaching of active ingredient (in ppm)” value (solution dosage 1.00% o.w.f, exhaust temperature 95° C., process time 60 min)?
The value was 10 ppm.
